Data taken from patent US20250382332A1, “NOVEL ALPHA-FACTOR BASED PEPTIDES WITH ANTIFUNGAL ACTIVITY” (INVAIO SCIENCES, INC., priority 2024, published 2025).
Peptide text beside a SMILES is read from it.

System: Botrytis cinerea (B05.10)
Test: Resazurin antifungal assay of 180 alpha-factor peptide variants towards Botrytis (Example 2)
Type: cell-based
Settings: % inhibition of fungal growth, Botrytis conidia, resazurin; for Inhibition at 10 μM: peptide 10 μM; for Inhibition at 20 μM: peptide 20 μM; for Inhibition at 50 μM: peptide 50 μM; for Inhibition at 100 μM: peptide 100 μM
Method: The antifungal activity of 180 alpha-factor peptide variants towards Botrytis was tested. Experimental design:
Peptides corresponding to SEQ ID NO: 1-180 were chemically synthesized using the solid-phase synthesis method and resuspended in water to a stock solution of 1 mM. The stock solution was aliquoted in cryovials and stored at −80° C.
The Botrytis cinerea culture (B05.10) isolate was acquired from the Centraalbureau voor Schimmelcultures, the Netherlands. The Botrytis fungus was propagated on 0.5% V8 agar plates (200 ml V8 Juice, 3 g CaCO3, 15 g agar, 800-ml millipore water) at 20° C., in a 12 h photoperiod for 21 days.
Fungal conidia were harvested by scraping a Botrytis plate flooded with 1 ml water with 0.1% Tween 80 solution. Conidia were then collected in a 50 ml falcon tube by passing the solution through a 40 micron filter. The solution was then centrifuged at 6000 rpm and the pellet was resuspended in 1 ml of 20% glycerol. The conidia concentration of the resulting solution was counted using a hemocytometer. The stock was diluted to […] using 20% glycerol and frozen in 100 μl aliquots in −80° C. until further use.
Peptides were tested for activity against Botrytis, using the resazurin assay. For this, fungal stock conidia was first diluted to 5000 conidia/well. 50 μl of the spore suspension was added to each well of the sterile 96-well clear bottom testing plate and mixed with 50 μl of peptide solutions to a final concentration of 100, 50, 20, 15 and 10 μM. The plate was incubated for 24 h at 20° C. After 24 h, 10 μl of resazurin dye was added to the microtiter plate and incubated again for […]. Fluorescence was measured at 570/620 nm after 4 h of incubation with resazurin.
Growth inhibition was calculated by subtracting the fluorescence values of conidia only wells from sample wells and depicted as % inhibition of fungal growth. Four technical replicates were used for all treatments.

## CSCC[C@H](NC(=O)[C@@H]1CCCN1C(=O)[C@H](CCC(N)=O)NC(=O)CNC(=O)[C@@H](NC(=O)[C@H](CCCCN)NC(=O)[C@H](Cc1ccccc1)NC(=O)[C@H](CCC(N)=O)NC(=O)[C@H](CC(C)C)NC(=O)[C@H](CC(C)C)NC(=O)[C@H](Cc1c[nH]cn1)NC(=O)[C@@H](N)Cc1c[nH]c2ccccc12)C(C)C)C(=O)N[C@@H](Cc1ccc(O)cc1)C(=O)O [compound 25] (H-WHLLQFKVGQPMY-OH; N-terminus and C-terminus assumed)
  Inhibition at 10 μM: <90%
  Inhibition at 20 μM: <90%
  Inhibition at 50 μM: 92.63%
  Inhibition at 100 μM: 100%

## CC[C@H](C)[C@H](NC(=O)[C@H](Cc1c[nH]c2ccccc12)NC(=O)[C@H](Cc1c[nH]cn1)NC(=O)[C@@H](N)Cc1c[nH]c2ccccc12)C(=O)N[C@@H](CCC(N)=O)C(=O)N[C@@H](Cc1ccccc1)C(=O)N[C@@H](CCCCN)C(=O)N1CCC[C@H]1C(=O)NCC(=O)N[C@@H](CCC(N)=O)C(=O)N[C@@H](CO)C(=O)N[C@@H](CCSC)C(=O)N[C@@H](Cc1ccc(O)cc1)C(=O)O [compound 26] (H-WHWIQFKPGQSMY-OH; N-terminus and C-terminus assumed)
  Inhibition at 10 μM: <90%
  Inhibition at 20 μM: <90%
  Inhibition at 50 μM: 91.39%
  Inhibition at 100 μM: 100%

## CSCC[C@H](NC(=O)[C@@H]1CCCN1C(=O)[C@H](CCC(N)=O)NC(=O)CNC(=O)[C@H](CO)NC(=O)[C@H](CCCCN)NC(=O)[C@H](CC(C)C)NC(=O)[C@H](CC(N)=O)NC(=O)[C@H](CC(C)C)NC(=O)[C@H](Cc1ccccc1)NC(=O)[C@H](Cc1c[nH]cn1)NC(=O)[C@@H](N)CCCCN)C(=O)N[C@@H](Cc1ccc(O)cc1)C(=O)O [compound 27] (H-KHFLNLKSGQPMY-OH; N-terminus and C-terminus assumed)
  Inhibition at 50 μM: 90.58%
  Inhibition at 100 μM: 100%

## CSCC[C@H](NC(=O)[C@@H]1CCCN1C(=O)[C@H](CCC(N)=O)NC(=O)CNC(=O)[C@@H]1CCCN1C(=O)[C@H](CCCCN)NC(=O)[C@H](CC(C)C)NC(=O)[C@H](C)NC(=O)[C@H](CC(C)C)NC(=O)[C@H](Cc1ccccc1)NC(=O)[C@H](Cc1c[nH]cn1)NC(=O)[C@@H](N)CCCCN)C(=O)N[C@@H](Cc1ccc(O)cc1)C(=O)O [compound 28] (H-KHFLALKPGQPMY-OH; N-terminus and C-terminus assumed)
  Inhibition at 50 μM: <90%
  Inhibition at 100 μM: 100%

## CSCC[C@H](NC(=O)[C@@H]1CCCN1C(=O)[C@H](CCC(N)=O)NC(=O)CNC(=O)[C@@H]1CCCN1C(=O)[C@H](CCCCN)NC(=O)[C@H](Cc1ccccc1)NC(=O)[C@H](CCCNC(=N)N)NC(=O)[C@H](CC(C)C)NC(=O)[C@H](CC(=O)O)NC(=O)[C@H](Cc1c[nH]cn1)NC(=O)[C@@H](N)CCCCN)C(=O)N[C@@H](Cc1ccc(O)cc1)C(=O)O [compound 29] (H-KHDLRFKPGQPMY-OH; N-terminus and C-terminus assumed)
  Inhibition at 50 μM: <90%
  Inhibition at 100 μM: 97.77%

## CC[C@H](C)[C@H](NC(=O)[C@@H](NC(=O)[C@H](CC(C)C)NC(=O)[C@H](Cc1c[nH]c2ccccc12)NC(=O)[C@H](Cc1c[nH]cn1)NC(=O)[C@@H]1CCCN1)[C@@H](C)O)C(=O)N[C@@H](CCCCN)C(=O)N1CCC[C@H]1C(=O)NCC(=O)N[C@@H](CCC(N)=O)C(=O)N1CCC[C@H]1C(=O)N[C@@H](CCSC)C(=O)N[C@@H](Cc1ccc(O)cc1)C(=O)O [compound 30] (H-PHWLTIKPGQPMY-OH; N-terminus and C-terminus assumed)
  Inhibition at 50 μM: <90%
  Inhibition at 100 μM: <90%

## CC[C@H](C)[C@H](NC(=O)[C@H](Cc1c[nH]c2ccccc12)NC(=O)[C@H](CCC(=O)O)NC(=O)[C@@H](N)CCCCN)C(=O)N[C@@H](CCC(N)=O)C(=O)N[C@@H](CC(C)C)C(=O)N[C@@H](CCCCN)C(=O)N[C@@H](CC(C)C)C(=O)NCC(=O)N[C@@H](CCC(N)=O)C(=O)N1CCC[C@H]1C(=O)N[C@@H](CCSC)C(=O)N[C@@H](Cc1ccc(O)cc1)C(=O)O [compound 31] (H-KEWIQLKLGQPMY-OH; N-terminus and C-terminus assumed)
  Inhibition at 50 μM: <90%
  Inhibition at 100 μM: <90%

## CSCC[C@H](NC(=O)CNC(=O)[C@H](CCC(N)=O)NC(=O)CNC(=O)[C@@H]1CCCN1C(=O)[C@H](CCCCN)NC(=O)[C@H](CC(C)C)NC(=O)[C@H](CO)NC(=O)[C@H](CC(C)C)NC(=O)[C@H](Cc1c[nH]c2ccccc12)NC(=O)[C@H](CO)NC(=O)[C@@H](N)CCCCN)C(=O)N[C@@H](Cc1ccc(O)cc1)C(=O)O [compound 32] (H-KSWLSLKPGQGMY-OH; N-terminus and C-terminus assumed)
  Inhibition at 50 μM: <90%
  Inhibition at 100 μM: <90%

## CSCC[C@H](NC(=O)[C@@H]1CCCN1C(=O)[C@H](CCC(=O)O)NC(=O)CNC(=O)[C@@H]1CCCN1C(=O)[C@H](CCCCN)NC(=O)[C@H](Cc1ccccc1)NC(=O)[C@H](CCC(N)=O)NC(=O)CNC(=O)[C@H](Cc1c[nH]c2ccccc12)NC(=O)[C@H](CCCNC(=N)N)NC(=O)[C@@H](N)Cc1c[nH]c2ccccc12)C(=O)N[C@@H](Cc1ccc(O)cc1)C(=O)O [compound 33] (H-WRWGQFKPGEPMY-OH; N-terminus and C-terminus assumed)
  Inhibition at 50 μM: <90%
  Inhibition at 100 μM: <90%

## CSCC[C@H](NC(=O)CNC(=O)[C@H](CCC(N)=O)NC(=O)CNC(=O)[C@@H]1CCCN1C(=O)[C@H](Cc1ccccc1)NC(=O)[C@H](Cc1ccccc1)NC(=O)[C@H](CO)NC(=O)[C@H](CC(C)C)NC(=O)[C@H](Cc1c[nH]c2ccccc12)NC(=O)[C@H](Cc1c[nH]cn1)NC(=O)[C@@H]1CCCN1)C(=O)N[C@@H](Cc1ccc(O)cc1)C(=O)O [compound 34] (H-PHWLSFFPGQGMY-OH; N-terminus and C-terminus assumed)
  Inhibition at 50 μM: <90%
  Inhibition at 100 μM: <90%

## CSCC[C@H](NC(=O)[C@@H]1CCCN1C(=O)[C@H](CCSC)NC(=O)CNC(=O)[C@@H](NC(=O)[C@H](CCCCN)NC(=O)[C@H](CC(C)C)NC(=O)[C@H](CCC(=O)O)NC(=O)[C@H](CC(C)C)NC(=O)[C@H](Cc1c[nH]c2ccccc12)NC(=O)[C@H](CS)NC(=O)[C@@H](N)CCCCN)[C@@H](C)O)C(=O)N[C@@H](Cc1ccc(O)cc1)C(=O)O [compound 35] (H-KCWLELKTGMPMY-OH; N-terminus and C-terminus assumed)
  Inhibition at 50 μM: <90%
  Inhibition at 100 μM: 97.61%

## CSCC[C@H](NC(=O)[C@H](Cc1c[nH]cn1)NC(=O)[C@@H](N)Cc1c[nH]c2ccccc12)C(=O)N[C@@H](CC(C)C)C(=O)N[C@@H](CCC(=O)O)C(=O)N[C@@H](Cc1ccccc1)C(=O)N[C@@H](CCCCN)C(=O)N1CCC[C@H]1C(=O)NCC(=O)N[C@@H](CCC(N)=O)C(=O)N1CCC[C@H]1C(=O)N[C@@H](CCSC)C(=O)N[C@@H](Cc1ccc(O)cc1)C(=O)O [compound 36] (H-WHMLEFKPGQPMY-OH; N-terminus and C-terminus assumed)
  Inhibition at 50 μM: <90%
  Inhibition at 100 μM: <90%

## CC[C@H](C)[C@H](NC(=O)[C@H](Cc1c[nH]c2ccccc12)NC(=O)[C@H](Cc1c[nH]cn1)NC(=O)[C@@H]1CCCN1)C(=O)N[C@@H](CCC(N)=O)C(=O)N[C@@H](CC(C)C)C(=O)N[C@@H](Cc1ccccc1)C(=O)N[C@@H](CC(N)=O)C(=O)NCC(=O)N[C@@H](CCC(N)=O)C(=O)N1CCC[C@H]1C(=O)N[C@@H](CCSC)C(=O)N[C@@H](Cc1ccc(O)cc1)C(=O)O [compound 37] (H-PHWIQLFNGQPMY-OH; N-terminus and C-terminus assumed)
  Inhibition at 50 μM: <90%
  Inhibition at 100 μM: <90%

## CSCC[C@H](NC(=O)[C@@H]1CCCN1C(=O)[C@H](CCC(=O)O)NC(=O)CNC(=O)[C@@H]1CCCN1C(=O)[C@H](CCCCN)NC(=O)[C@H](Cc1ccccc1)NC(=O)[C@H](CCC(N)=O)NC(=O)[C@H](CC(C)C)NC(=O)[C@@H](NC(=O)[C@H](Cc1c[nH]cn1)NC(=O)[C@@H](N)CCCCN)C(C)C)C(=O)N[C@@H](Cc1ccc(O)cc1)C(=O)O [compound 38] (H-KHVLQFKPGEPMY-OH; N-terminus and C-terminus assumed)
  Inhibition at 50 μM: <90%
  Inhibition at 100 μM: <90%

## CSCC[C@H](NC(=O)[C@@H]1CCCN1C(=O)[C@H](CCC(N)=O)NC(=O)CNC(=O)[C@@H]1CCCN1C(=O)[C@H](CCCCN)NC(=O)[C@H](Cc1ccccc1)NC(=O)[C@H](CCC(N)=O)NC(=O)CNC(=O)[C@H](Cc1c[nH]c2ccccc12)NC(=O)[C@H](CO)NC(=O)[C@@H](N)CCCCN)C(=O)N[C@@H](Cc1ccc(O)cc1)C(=O)O [compound 39] (H-KSWGQFKPGQPMY-OH; N-terminus and C-terminus assumed)
  Inhibition at 50 μM: <90%
  Inhibition at 100 μM: <90%
